Where two headings read alike, the source gives them in different places.
Columns and labels:
bleeding time = test: Tail bleeding time in mice; type: in vivo, mouse; details: single oral 30 mg/kg, 10 min before test, control 110±5 s, not significant
Description: K-134 and warfarin (Sigma Aldrich Co., MO, USA) were suspended and dissolved in 1% HPMC, respectively, and orally administered to ICR mice at 10 min or 24 h before testing of bleeding, respectively. Each mouse was placed in a restrainer, which exposes the tail. A 27G disposable needle (Terumo Co., Tokyo, Japan) was inserted about 6 mm into a tail vein 2 cm from the tip of the tail. Immediately after the operation, sheets of filter paper were placed under the injury site every 15 sec to absorb the blood, and the time point at which no blood was observed on the filter paper was regarded as the bleeding time.

[1] = parameters: method as in PMID 22269153; details: cited from earlier work
[2] = Plasma concentration of K-134 in mice; type: in vivo, mouse; details: male ICR mice, 10 min after administration, n = 6; for concentration at 10 min: mouse, plasma
Description: We also measured plasma concentration of K-134 at 10 min after a single oral administration of K-134 to male ICR mice (Japan SLC Inc., 5 weeks old).

[3] = tested on: platelet aggregation ex vivo; parameters: method as in PMID 22269153; details: rats, single administration 30 mg/kg; cited from earlier work
[4] = tested on: mouse platelet aggregation; test: Mouse platelet aggregation in vitro (PRP, aggregometer); type: cell-based
Description: Platelet-rich plasma (PRP) was prepared by centrifugation (900 rpm, 15 min, at room temperature) of blood (05PR-22 centrifuge with a 03 rotor; Hitachi, Ltd., Tokyo, Japan), and the platelet count was adjusted to 5×10^5/µL with platelet-poor plasma prepared by centrifugation (3000 rpm, 10 min, at room temperature). PRP was incubated with antiplatelet agents at 37°C for 3 min and stimulated with collagen (final concentration, 15 µg/mL; MC Medical Inc., Tokyo, Japan) or adenosine diphosphate (ADP) (final concentration, 7.5 µM; MC Medical Inc.) (n = 5). Platelet aggregation was quantified by measuring the area under the curve (AUC) during the 5-min period after addition of trigger using a light transmittance aggregometer (PAM-8C; Mebanix Co., Ltd., Tokyo, Japan).

[5] = tested on: platelet aggregation ex vivo; test: Platelet aggregation ex vivo in rats after oral dosing; details: Rattus norvegicus, 300 mg/kg oral, 3 h after administration
Description: Cilostazol was orally administered to rats under non-fasting conditions in a single dose. […] Platelet-rich plasma (PRP) was prepared by centrifugation (450 × g, 8 min, 25°C) of blood. PRP was stimulated with adenosine diphosphate (ADP) (final concentration = 4 µM; MC Medical Inc., Tokyo, Japan) or collagen (final concentration = 5 µg/mL; MC Medical Inc.). Platelet aggregation was quantified by measuring the area under the curve (AUC) during the 5 or 7 min after addition of ADP or collagen, respectively, using a light transmittance aggregometer (Hema Tracer 313M; MC Medical Inc.).

[6] = Pharmacokinetics of cilostazol and its active metabolites in rats; type: in vivo, rat; details: single oral cilostazol 300 mg/kg, non-fasting male SD rats, n = 3, parent and metabolites
Description: Pharmacokinetic variables (Cmax, AUC, Tmax and T1/2) were calculated from the plasma drug concentration-time curve. Cilostazol was orally administered to rats under non-fasting conditions at a single dose of 300 mg/kg to determine the concentration-time profile in serum (n = 3). Values are means (± SEM). […]

[7] = parameters: method as in PMID 10702882; details: human healthy male, single dose 100 mg of cilostazol, cited from earlier work

For O=C(NCCCOc1ccc2[nH]c(=O)ccc2c1)N(C1CC1)[C@@H]1CCCC[C@H]1O [K-134], the bleeding time (bleeding time) is listed as 106 ± 5 s, the “time to plasma peak levels” value ([1]; oral administration, conscious male SD rats under fed conditions) is listed as 1 to 2 h and the “half-life (T1/2)” value ([1]; rats, 10 mg/kg) is listed as “about 2 h”. The “Plasma concentration of K-134” value ([2]; 30 mg/kg single oral, 30 mg/kg) was 13600 ± 2300 nM, the concentration at 10 min ([2]; 1 mg/kg single oral) was 400 nM and the concentration at 10 min ([2]; 3 mg/kg single oral) was 1100 ± 200 nM. The concentration at 10 min ([2]; 10 mg/kg single oral) was 4300 ± 600 nM, the concentration at 10 min ([2]; 30 mg/kg single oral) was 13600 ± 2300 nM and the “inhibition of ADP-induced platelet aggregation ex vivo” value [3] was “about 55%”. The “inhibition of collagen-induced platelet aggregation ex vivo” value [3] was ~79%, the IC50 ([4]; ADP, read-out: IC50, mouse platelet aggregation induced by ADP) was 6.7 µM and the IC50 ([4]; collagen, read-out: IC50, mouse platelet aggregation induced by collagen) was 5.5 µM.
For O=C1CCc2cc(OCCCCc3nnnn3C3CCCCC3)ccc2N1 [cilostazol], the inhibition at 300 mg/kg ([5]; read-out: inhibition of ADP-induced platelet aggregation ex vivo) was 27%, the inhibition at 300 mg/kg ([5]; read-out: inhibition of collagen-induced platelet aggregation ex vivo) was 50% and the Tmax ([6]; male, SD, rat, plasma, po, 300 mg/kg, read-out: Tmax) was > 3 h. It also gave a Cmax ([6]; rat, plasma) of 2400 nM, a half-life ([6]; rat, plasma) of 5.4 h and an AUC(0-t) ([6]; rat, plasma, read-out: AUC0-24h) of 30.1 µM·h. The Tmax [6] was 5.8 h, the Cmax ([7]; converted from µg/L, read-out: Cmax) was 1690 nM and the “AUC0–72 h” value ([7]; converted from µg/L·h) was 21.89 µM·h. For the same compound, the “AUC0–72 h” value [7] was “about 8087 µg/L·h” and the Cmax [7] was “about 625 µg/L”.
